Consider one compound from PMC9024597, “The Biological Fate of a Novel Anticancer Drug Candidate TNBG-5602: Metabolic Profile, Interaction with CYP450, and Pharmacokinetics in Rats” (Molecules, 2022).

SMILES strings stand for the structures.

One series addresses T1, CYP2D6 (Homo sapiens, UniProt P10635).
T1 construct: purchased IPHASE
Description: IC50 assessment using recombinant human CYPs (probe dextromethorphan). As to conditions: recombinant CYP 0.025 μM, dextromethorphan 0.05 mg mL^−1, 37 °C, 30 min, n = 3; read-out: IC50 against CYP2D6. It counts as in vitro ADME. The method, then:
(§1) Figure 12 The inhibition curves for TNBG-5602 against cytochrome enzymes (mean ± SD, n = 3). TNBG-5602 (final concentrations of 0, 0.01, 0.1, 1.0, 10.0, and 100 μM) was incubated with recombinant cytochrome P450s (final concentration 0.025 μM) and the specific probe substates (final concentration 0.05 mg mL^−1) with NADPH to initiate the metabolic reaction. The incubations were carried out at 37 °C for 30 min with a total volume of 200 μL. The CYP isoforms tested were 2D6 (dextromethorphan), 2C9 (tolbutamide), and 3A4 (testosterone). […] The IC50 values were calculated using the GraphPad Prism statistical software (Version 8) by nonlinear regression analysis.
(§2) The LC-MS/MS instrument was the same as the system used to determine TNBG-5602. The mobile phase consisted of 0.1% formic acid, aqueous solution (Solvent A), and acetonitrile (Solvent B) at a flow rate of 0.3 mL min^−1. […]
(§3) For IC50 assessment, the inhibition curves were established by nonlinear regression analysis plotting the relative activity (y) versus the logarithm of the TNBG-5602 concentration (x). The inhibition curve and the half-maximal inhibitory concentration of TNBG-5602 against each CYP isoform were analyzed using the GraphPad Prism statistical software (version 8). […]

A further series addresses T2, CYP3A4 (Homo sapiens, UniProt P08684).
T2 construct: purchased IPHASE
Description: IC50 assessment using recombinant human CYPs (probe testosterone). Format: in vitro ADME. As to conditions: recombinant CYP 0.025 μM, testosterone 0.05 mg mL^−1, 37 °C, 30 min, n = 3; read-out: IC50 against CYP3A4. The method, then: as §1, §2, §3

A short description of series [1]: Stability of TNBG-5602 rat plasma samples on storage and freeze-thaw. It counts as in vitro ADME. As to conditions: stored at −20 and −80 °C.
The test system of series [2] is five human cancer cell lines. Set-up: method as in PMID 35541052. As to conditions: cited from earlier work.
In the next series the test system is liver cancer cells. Set-up: method as in PMID 31446646. As to conditions: cited from earlier work.
The test system of another series is cancer cells and tissues. Set-up: method as in PMID 31446646. As to conditions: oil red O staining; cited from earlier work.

T1 sequence (P10635 whole entry): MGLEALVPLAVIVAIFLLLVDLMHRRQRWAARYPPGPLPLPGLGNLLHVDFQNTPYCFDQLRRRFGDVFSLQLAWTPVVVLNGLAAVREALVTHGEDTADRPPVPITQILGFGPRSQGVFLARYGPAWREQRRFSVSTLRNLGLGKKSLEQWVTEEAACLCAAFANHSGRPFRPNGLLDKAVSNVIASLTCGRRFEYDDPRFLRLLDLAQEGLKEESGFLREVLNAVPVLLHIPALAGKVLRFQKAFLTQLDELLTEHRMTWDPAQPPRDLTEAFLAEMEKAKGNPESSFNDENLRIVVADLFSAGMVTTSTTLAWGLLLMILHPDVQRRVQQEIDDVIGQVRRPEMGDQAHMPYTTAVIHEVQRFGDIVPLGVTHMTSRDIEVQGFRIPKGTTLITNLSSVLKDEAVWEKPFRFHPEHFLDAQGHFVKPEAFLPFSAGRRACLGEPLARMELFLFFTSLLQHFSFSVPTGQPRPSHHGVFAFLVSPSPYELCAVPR
T2 sequence (P08684 whole entry): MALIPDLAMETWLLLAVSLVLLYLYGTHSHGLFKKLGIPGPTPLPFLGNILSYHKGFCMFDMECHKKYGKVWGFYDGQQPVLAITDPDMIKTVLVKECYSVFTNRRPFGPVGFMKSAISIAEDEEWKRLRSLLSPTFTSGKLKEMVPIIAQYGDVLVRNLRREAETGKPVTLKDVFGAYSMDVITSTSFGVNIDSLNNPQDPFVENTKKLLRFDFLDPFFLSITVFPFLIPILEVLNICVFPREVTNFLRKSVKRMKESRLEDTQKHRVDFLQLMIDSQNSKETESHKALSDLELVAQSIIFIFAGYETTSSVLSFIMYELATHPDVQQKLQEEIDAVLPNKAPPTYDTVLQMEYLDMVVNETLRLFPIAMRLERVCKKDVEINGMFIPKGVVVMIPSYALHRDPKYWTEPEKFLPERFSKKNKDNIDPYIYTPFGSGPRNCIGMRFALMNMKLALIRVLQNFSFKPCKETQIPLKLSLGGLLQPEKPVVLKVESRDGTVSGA

Broadly, the IC50 is the concentration needed to halve the response being measured. With `CN(C)CCN1CC2c3ccccc3CCN2c2nc3ccccc3nc21` (stereo not drawn) [TNBG-5602], the 50% inhibitory concentration (IC50) is 2.52 µM on CYP2D6 and 18.7 µM at CYP3A4. The “time plasma samples were stable on storage” value in series [1] was “at least 90 days”. Moreover, in series [2], the “inhibitory activity against five human cancer cell lines” value is “strong inhibitory activity”. In addition, the “inhibition of proliferation of liver cancer cells in vitro” value in the series on liver cancer cells was “effectively inhibited the proliferation”. Moreover, the “lipid accumulation in cancer cells and tissues” value with cancer cells and tissues is reported as “selectively cause lipid accumulation”.
